# Assay results taken from the supplement of paper PMC10307832.
# What was measured:
# Assay in all cases: relative viability (nuclei count vs DMSO), 5 days (fraction); higher = more cells survive
# [1] = compound: CC1=CC(=C(N1C2=CC=C(C=C2)Cl)C)C(=O)CN3CCCCC3 [IU1-47] + Cc1nc(NC(=O)N2CCC[C@H]2C(N)=O)sc1-c1ccnc(C(C)(C)C(F)(F)F)c1 [Alpelisib] (partner 2 µM)
# Method in brief: (§1)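 Relative viability equals treated-well nuclei counts divided by vehicle-well nuclei counts. Counts came from 4× images of lung cancer cell lines grown in 1536-well plates for 5 days after pin-tool dosing on the day after seeding. Dosing used one drug alone or a fixed anchor-drug dose plus five library-drug doses (not always all listed) in √10 steps, and values are medians of duplicate plates.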
# [2] = compound: Cc1nc(C(=O)NCC(=O)O)c(O)c2ccc(Oc3ccccc3)cc12 [FG-4592] + CC(=O)c1c(C)c2cnc(Nc3ccc(N4CCNCC4)cn3)nc2n(C2CCCC2)c1=O [Palbociclib] (partner 0.5 µM)
# Method in brief: as §1
# [3] = compound: Cc1nc(C(=O)NCC(=O)O)c(O)c2ccc(Oc3ccccc3)cc12 [FG-4592] + CC1(C)CCC(c2ccc(Cl)cc2)=C(CN2CCN(c3ccc(C(=O)NS(=O)(=O)c4ccc(N[C@H](CCN5CCOCC5)CSc5ccccc5)c(S(=O)(=O)C(F)(F)F)c4)cc3)CC2)C1 [Navitoclax] (partner 0.5 µM)
# Method in brief: as §1
# [4] = compound: Cc1nc(C(=O)NCC(=O)O)c(O)c2ccc(Oc3ccccc3)cc12 [FG-4592] + C[C@]1(O)C[C@@H](c2nc(-c3ccc4ccc(-c5ccccc5)nc4c3)c3c(N)nccn32)C1 [Linsitinib] (partner 1 µM)
# Method in brief: as §1
cell line,measurement,setting,value
UMC-11,relative viability,[1]; first compound 0.08 µM,1.09
same,relative viability,[1]; first compound 0.253 µM,1.1
same,relative viability,[1]; first compound 0.8 µM,1.02
same,relative viability,[1]; first compound 2.53 µM,1.24
same,relative viability,[1]; first compound 8 µM,0.735
same,relative viability,[2]; first compound 0.08 µM,0.306
same,relative viability,[2]; first compound 0.253 µM,0.309
same,relative viability,[2]; first compound 0.8 µM,0.32
same,relative viability,[2]; first compound 2.53 µM,0.331
same,relative viability,[2]; first compound 8 µM,0.285
same,relative viability,[3]; first compound 0.08 µM,0.391
same,relative viability,[3]; first compound 0.253 µM,0.321
same,relative viability,[3]; first compound 0.8 µM,0.29
same,relative viability,[3]; first compound 2.53 µM,0.312
same,relative viability,[3]; first compound 8 µM,0.274
same,relative viability,[4]; first compound 0.08 µM,0.974
same,relative viability,[4]; first compound 0.253 µM,0.93
same,relative viability,[4]; first compound 0.8 µM,0.933
same,relative viability,[4]; first compound 2.53 µM,1.06
same,relative viability,[4]; first compound 8 µM,0.87
